# Data: patent US12128260B2, “Pathogen capture using active surface modification” (priority 2020, dated 2024)
# Experiments:
# SARS-CoV-2 spike protein = SARS-CoV-2 spike protein (Severe acute respiratory syndrome coronavirus 2, UniProt P0DTC2); format: binding
# IgG = experiment: Model protein (IgG) capture on nanocoated facemask pieces, Gel-Code protein staining dye; format: binding; conditions: FIG. 7, IgG incubated 30 minutes, PBS wash, colour change, relative to uncoated facemask
# Source text: FIG. 7 depicts the relative binding of a model protein to pieces of facemasks coated with a different one of three bifunctional silane chemicals as well as to uncoated had hydrophobic controls. With reference to FIG. 7, pairs of pieces of standard facemasks (Machimpex, catalogue #1005-544-988) were nanocoated with one of the various chemicals. One pair, shown at the far left, was left uncoated. […] IgG was used as a model for protein capture as it behaved similar to the full-length coronavirus spike protein in plate-binding assays and is likely to have similar activity to that of bacterial coat proteins. The IgG was applied to the facemask fabric and incubated for 30 minutes prior to washing in phosphate buffered saline (PBS). Detection of the captured protein after washing was performed by applying 200 μl Gel-Code protein staining dye (Thermo Fisher Scientific, catalogue #24590) directly to the materials and incubating for one hour. Color change indicating protein capture was documented by photography.
# Human IgG = conditions: FIGS. 4A and 4B; all concentration levels that included IgG, starting at 1 μg/ml; compared with high-protein-binding ELISA plates
structure (smiles),measurement,setting,value
"CCO[Si](CCCNC(=O)/C=C\C(=O)O)(OCC)OCC [CCH8845, triethoxysilylpropylmaleamic acid]",overall capability of binding the coronavirus spike protein,SARS-CoV-2 spike protein,"bind about equally well as CCH9021, CCH4502, and CCH1053"
"CCO[Si](CCCNCCN)(OCC)OCC [CCH9021, N-(2-aminoethyl)-3-aminopropyltriethoxysilane]",capture of model protein (IgG) onto facemask,IgG,efficiently captured the protein onto facemask relative to the uncoated facemask
same,capture of model protein (IgG) onto facemask,IgG; listed as NCT9021,appears to have captured more efficiently
same,relative binding of SARS-CoV-2 spike glycoprotein,SARS-CoV-2 spike protein,slightly underperformed the high-protein-binding ELISA plate
"CO[Si](C)(CCCNCCCN(C)C)OC [CCH699020, 3-(N,N-dimethylaminopropyl)aminopropylmethyldimethoxysilane]",relative binding of SARS-CoV-2 spike glycoprotein applied at different concentrations,SARS-CoV-2 spike protein,control high-protein-binding ELISA plate significantly outperformed the chemical coating
CCO[Si](CCCNCCN)(OCC)OCC [N-(2-aminoethyl)-3-aminopropyltriethoxysilane],relative binding of IgG applied at different concentrations,Human IgG,significantly outperformed the high-protein-binding ELISA plates
